The results in this text go back to US6455593B1, “Method of dynamic retardation of cell cycle kinetics to potentiate cell damage” (priority 1995, dated 2002).

The test system of one assay is p. falciparum W2. Briefly: Parasite growth by 3H-hypoxanthine uptake in infected erythrocytes. Particulars: Plasmodium falciparum, W2, Erythrocyte, read-out: inhibitory concentrations (IC50), strain W2. It counts as cell-based.
The subject of assay [1] is human promonocytic lymphoma cells (U937). Nature of the assay: Microculture indicator system (MIS), MTT growth inhibition assay with bivariate serial dilutions. It counts as cell-based. Particulars: for inhibition at 0.01 µg/mL / inhibition at 0.02 µg/mL / inhibition at 0.03 µg/mL / inhibition at 0.06 µg/mL / inhibition at 0.5 µg/mL / inhibition at 1 µg/mL / inhibition at 2 µg/mL / inhibition at 4 µg/mL: Homo sapiens. The procedure, abridged:
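U937 human promonocytic lymphoma cells were tested in flat-bottom 96-well plates. Two agents were each diluted two-fold by serial mixing, then combined into bivariate dilution series before about 1×10^5 cells per well were added in RPMI 1640 with 10% Nurserum and antibiotics, 100 μl per well. Plates were incubated at 37° C. Thirty μl of 0.5% MTT was then added for 3 hr. Formazan was dissolved overnight with 120 μl of 10 % SDS/0.01 N HCl and absorbance was read at 570 nm against a cell-free blank.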

The test system of a further assay is p. falciparum D6. Nature of the assay: Parasite growth by 3H-hypoxanthine uptake in infected erythrocytes. The assay is classed as cell-based. Particulars: Plasmodium falciparum, D6, Erythrocyte, read-out: inhibitory concentrations (IC50), strain D6.
The test system of another assay is U937 cells. Briefly: Flow cytometric cell cycle analysis (propidium iodide). Particulars: 50 nM STSP, from 4 hours, shown at 8 hr and 24 hours, U937. The assay is classed as cell-based, human. An outline of the steps:
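Cells exposed to graded dThd concentrations below the IC40 and sampled at 8, 16 and 24 h. Nuclei released with 0.1% Triton X-100 (or 0.6% NP-40), stained with 0.05% PI and read at 675±10 nm on ≥10,000 nuclei. Phase fractions given relative to intact-DNA cells; DNA-depleted (presumed apoptotic) cells as % of total.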
A general note: A flow cytometer gives signals particle by particle.

[2] abbreviates: 24 hr after RBC infection, 3H-hypoxanthine uptake.

SMILES strings stand for the structures. Read-outs that look alike come from different tables or passages of the source.

For `C[C@@]1(CO)[C@H](O)CC[C@@]2(C)[C@H]1CC[C@H]1C[C@@H]3C[C@@]12CC[C@]3(O)CO` [Aph, aphidicolin], the IC50 was 0.123 µM in the assay on p. falciparum W2 (setting [2]) and 0.4 µM with p. falciparum D6 (setting [2]). Moreover, the inhibition at 0.01 µg/mL is 5% in assay [1] (U-937, 4 h, U937, Aph 0.01 ug/ml 4 H, K252a 0, read-out: MTT % inhibition, Aph only) and 1% in assay [1] (U-937, U937, total 18 H, STSP 14 H, Aph 4 H, Aph 0.01 ug/ml, STSP nM by row: r7 100, r8 50, r9 25, r10 12.5, r11 6.25, r12 3.13, r13-r14 0, read-out: Growth inhibition (MTT)). The inhibition at 0.02 µg/mL in assay [1] (U-937, 4 h, U937, Aph 0.02 ug/ml 4 H, K252a 0, read-out: MTT % inhibition, Aph only) is 0%; in assay [1] (U-937, U937, total 18 H, STSP 14 H, Aph 4 H, Aph 0.02 ug/ml, STSP nM by row: r7 100, r8 50, r9 25, r10 12.5, r11 6.25, r12 3.13, r13-r14 0, read-out: Growth inhibition (MTT)), 7%. Besides, the inhibition at 0.03 µg/mL in assay [1] (U-937, 4 h, U937, Aph 0.03 ug/ml 4 H, K252a 0, read-out: MTT % inhibition, Aph only) was determined as 1%; in assay [1] (U-937, U937, total 18 H, STSP 14 H, Aph 4 H, Aph 0.03 ug/ml, STSP nM by row: r7 100, r8 50, r9 25, r10 12.5, r11 6.25, r12 3.13, r13-r14 0, read-out: Growth inhibition (MTT)), 6%. The inhibition at 0.06 µg/mL in assay [1] (U-937, 4 h, U937, Aph 0.06 ug/ml 4 H, K252a 0, read-out: MTT % inhibition, Aph only) was 14%; in assay [1] (U-937, U937, total 18 H, STSP 14 H, Aph 4 H, Aph 0.06 ug/ml, STSP nM by row: r7 100, r8 50, r9 25, r10 12.5, r11 6.25, r12 3.13, r13-r14 0, read-out: Growth inhibition (MTT)), 9%. The inhibition at 0.5 µg/mL in assay [1] (U-937, 4 h, U937, Aph 0.50 ug/ml 4 H, K252a 0, read-out: MTT % inhibition, Aph only) is 9%; in assay [1] (U-937, U937, total 18 H, STSP 14 H, Aph 4 H, Aph 0.50 ug/ml, STSP nM by row: r7 100, r8 50, r9 25, r10 12.5, r11 6.25, r12 3.13, r13-r14 0, read-out: Growth inhibition (MTT)) it was 21%. The inhibition at 1 µg/mL in assay [1] (U-937, 4 h, U937, Aph 1.00 ug/ml 4 H, K252a 0, read-out: MTT % inhibition, Aph only) was 14%; in assay [1] (U-937, U937, total 18 H, STSP 14 H, Aph 4 H, Aph 1.00 ug/ml, STSP nM by row: r7 100, r8 50, r9 25, r10 12.5, r11 6.25, r12 3.13, r13-r14 0, read-out: Growth inhibition (MTT)) it was 22%. Also, the inhibition at 2 µg/mL in assay [1] (U-937, 4 h, U937, Aph 2.00 ug/ml 4 H, K252a 0, read-out: MTT % inhibition, Aph only) worked out at 24%; in assay [1] (U-937, U937, total 18 H, STSP 14 H, Aph 4 H, Aph 2.00 ug/ml, STSP nM by row: r7 100, r8 50, r9 25, r10 12.5, r11 6.25, r12 3.13, r13-r14 0, read-out: Growth inhibition (MTT)) it was 31%. Further, the inhibition at 4 µg/mL in assay [1] (U-937, 4 h, U937, Aph 4.00 ug/ml 4 H, K252a 0, read-out: MTT % inhibition, Aph only) is 38%; in assay [1] (U-937, U937, total 18 H, STSP 14 H, Aph 4 H, Aph 4.00 ug/ml, STSP nM by row: r7 100, r8 50, r9 25, r10 12.5, r11 6.25, r12 3.13, r13-r14 0, read-out: Growth inhibition (MTT)), 30%. Besides, the “Potentiation of DNA damage by STSP as RA” value in assay [1] (U937, concentrations less than IC40, STSP as the TCI) is listed as “proved successful in potentiating DNA damage by STSP”. In addition, in assay [1] (U937, Aph alone, every Aph concentration 4.00-0.01 ug/ml), the “combined results ratio, Aph only (baseline line)” value is listed as 1.0. Also, the Combined results ratio in assay [1] (U937, total 18 H, STSP 14 H, Aph 4 H, Aph 0.01 ug/ml, STSP nM by row: r7 100, r8 50, r9 25, r10 12.5, r11 6.25, r12 3.13, r13-r14 0) is on record as 1.0; in assay [1] (U937, total 18 H, STSP 14 H, Aph 4 H, Aph 0.02 ug/ml, STSP nM by row: r7 100, r8 50, r9 25, r10 12.5, r11 6.25, r12 3.13, r13-r14 0), 1.0; in assay [1] (U937, total 18 H, STSP 14 H, Aph 4 H, Aph 0.03 ug/ml, STSP nM by row: r7 100, r8 50, r9 25, r10 12.5, r11 6.25, r12 3.13, r13-r14 0) it was 1.0; in assay [1] (U937, total 18 H, STSP 14 H, Aph 4 H, Aph 0.06 ug/ml, STSP nM by row: r7 100, r8 50, r9 25, r10 12.5, r11 6.25, r12 3.13, r13-r14 0), 1.0; in assay [1] (U937, total 18 H, STSP 14 H, Aph 4 H, Aph 0.50 ug/ml, STSP nM by row: r7 100, r8 50, r9 25, r10 12.5, r11 6.25, r12 3.13, r13-r14 0), 1.0; in assay [1] (U937, total 18 H, STSP 14 H, Aph 4 H, Aph 1.00 ug/ml, STSP nM by row: r7 100, r8 50, r9 25, r10 12.5, r11 6.25, r12 3.13, r13-r14 0) it was 1.0. Also, the Combined results ratio in assay [1] (U937, total 18 H, STSP 14 H, Aph 4 H, Aph 2.00 ug/ml, STSP nM by row: r7 100, r8 50, r9 25, r10 12.5, r11 6.25, r12 3.13, r13-r14 0) is recorded as 1.0; in assay [1] (U937, total 18 H, STSP 14 H, Aph 4 H, Aph 4.00 ug/ml, STSP nM by row: r7 100, r8 50, r9 25, r10 12.5, r11 6.25, r12 3.13, r13-r14 0), 1.0.
As for `CN[C@@H]1C[C@H]2O[C@@](C)([C@@H]1OC)n1c3ccccc3c3c4c(c5c6ccccc6n2c5c31)C(=O)NC4` [STSP, staurosporine], the “Effect on cell cycle distribution” value with U937 cells was “gradually accumulated in the G2 and M phases”. Besides, the IC50 stood at 0.15 µM in the assay with p. falciparum W2 and 0.19 µM in the assay on p. falciparum D6.

By inhibition is commonly meant how much of the control response was suppressed.
